In data set [1] the test system is human follicular lymphoma DOHH2. Nature of the data set: Subcutaneous xenograft model of the human follicular lymphoma DOHH2 in C.B-17 scid mice: tumor growth. Type of data set: in vivo. Background: Xenograft models place foreign cells or tissue in a host animal.
Data set [2] can be described thus: Body weight / tolerability in DOHH2 tumor-bearing C.B-17 scid mice.

“Also recorded” adds a separate entry of the source.

In general, TGI refers to the reduction of tumour growth relative to the control group. High values mean a stronger effect on the tumour, low ones a weaker effect on the tumour. In the case of `O=C(O)CCCc1ccc(N(CCCl)CCCl)cc1` [chlorambucil, 4-[Bis(2-chloroethy)amino]benzenebutaonic acid], in data set [1] (day 16), the “CR (complete tumor regression)” value is on record as 0 x/7, the “PR (partial tumor regression)” value is 0 x/7 and the “tumor regression (in words)” value is “tumor regressions were not observed”. The molecule further had a TGI in data set [1] (median, day 16, A2 10 mg/kg i.p. d1,5,8,12,15, chlorambucil 6 mg/kg i.p. d2,6) of 71%. Further, the “tumor growth inhibition (in words)” value in data set [1] (vs controls) is given as “moderate but significant inhibition of tumor growth; also recorded: moderate but significant efficacy”. For the same molecule, the “body weight loss during first week” value in data set [2] (after one week / first 7 days of the study) was found to be 13.4%. Besides, the Weight change in data set [2] (median body weight change, day 16) is −5.4%.

For the origin of these results see patent publication US20160106837A1, “COMBINATION OF CD37 ANTIBODIES WITH CHLORAMBUCIL” (BOEHRINGER INGELHEIM INTERNATIONAL GMBH, priority 2013, published 2016).
